Columns and labels:
[1] = test system: SUM159-R cells; test: Growth of AZD6244-resistant SUM159-R cells; assay type: cell-based, human; conditions: 25 μM AZD6244
Experimental: Cell Culture: MDA-MB-231 cells were grown in DMEM/F12 supplemented with 10% FBS. SUM-159 cells were grown in DMEM/F12 supplemented with 10% FBS 1 μg/mL hydrocortisone, and 5 μg/mL insulin. SUM159-R cells were continually grown in the presence of 5 μM AZD6244. For SILAC labeling, cells were grown for five doublings in arginine- and lysine-depleted media (as above) supplemented with either unlabeled L-arginine (42 mg/L) and L-lysine (71 mg/L) or equimolar amounts of heavy isotope labeled [13C6,15N4]arginine (Arg10) and [13C6]lysine (Lys6) (Cambridge Isotope Laboratories). Proliferation was quantified using Cell-Titer Glo Luminescent Cell Viability Assay (Promega). Fresh media containing DMSO or kinase inhibitors was added daily and experiments were performed in triplicate.
Generation of AZD6244 resistant SUM159 cells: SUM159 cells were cultured in DMEM/F12 supplemented with 10% FBS media containing 5 μM AZD6244. Media was changed every 2 days, maintaining inhibitor concentrations of 5 μM AZD6244.

[2] = test system: kinome (kinase binding to MIBs) of SUM159 cells; test: MIB/MS kinome profiling of inhibitor-treated SUM159 cells; assay type: cell-based, human
Excerpt: Multiplexed inhibitor bead affinity chromatography: Cells and tumors were lysed and harvested as previously described (Oppermann et al., 2009). Oppermann et al., 2009 Mol Cell Proteo 8 1751-1764. Briefly, lysates were brought to 1 M NaCl and passed through columns of washed inhibitor-conjugated beads (bisindoylmaleimide-X, SB203580, lapatinib, dasatinib, purvalanol B, VI16832, PP58) to isolate protein kinases from the lysates (see Supplemental Experimental Procedures for MIBs preparation). Kinase-bound inhibitor beads were washed with high-salt buffer and 0.1% SDS before elution in 0.5% SDS solution in high heat. Proteins were purified using chloroform/methanol extraction, resuspended in 50 mM ammonium bicarbonate (pH 8.0) or 50 mM HEPES (pH 8.0) for SILAC or iTRAQ respectfully. Samples were digested overnight at 37° C. with sequencing grade modified trypsin (Promega). iTRAQ labeling of digested peptides was carried out using iTRAQ 4-plex reagent (AB SCIEX) for 2 hrs at room temperature in the dark. Peptides were dried down, separated using Strong Cation Exchange Spin Columns, Mini and isolated with PepClean C-18 Spin Columns (Thermo Scientific).
LC-MS/MS analysis: MS and MS/MS data were acquired using a MALDI TOF/TOF 5800 (AB SCIEX). Peptides were analyzed using ProteinPilot Software Version 3.0 (AB SCIEX) and identification using UniProtKB/Swiss-Prot database (release Oct. 15, 2009). Proteins were only accepted when at least 1 unique peptide was identified at 99% confidence. ProteinPilot software 3.0 identified and quantified changes in kinase binding to MIBs utilizing the Pro Group Algorithm. […] For each protein ratio reported, a p-value is computed based on Student's t-distribution under the null hypothesis that the protein ratio is 1. MIB/MS analysis with cell lines was done in 2-3 independent experiments. A set of three independent experiments using SILAC labeled SUM159 cells treated with AZD6244 or DMSO was used to assess statistical significance and reproducibility of MIBs/MS to profile kinome response (Supplementary Methods).
Cells were lysed on ice for 20 minutes in lysis buffer containing 50 mM HEPES (pH 7.5), 0.5% Triton X-100, 150 mM NaCl, 1 mM EDTA, 1 mM EGTA, 10 mM sodium fluoride, 2.5 mM sodium orthovanadate, 50 ng/mL calyculin A, 1× protease inhibitor cocktail (Roche), and 1% each of phosphatase inhibitor cocktails 2 and 3 (Sigma). Cell lysate was sonicated (3×10 s) on ice and centrifuged for 15 minutes (13,000 rpm) at 4° C. and the supernatant was collected and syringe-filtered through a […] SFCA membrane. The filtered lysate (approximately 40 mg or protein per experiment) was brought to 1 M NaCl and pre-cleared by flowing over 500 μL of blocked and washed NHS-activated Sepharose 4 Fast Flow beads (GE Healthcare). The flow-through was collected and passed through a column of layered inhibitor-conjugated beads (Bisindoylmaleimide-X (50 μL), SB203580 (50 Lapatinib (100 μL), Dasatinib (100 μL), Purvalanol B (100 μL), VI16832 (100 μL), PP58 (100 4)) to isolate protein kinases from the lysates. Kinase-bound inhibitor beads were washed with 20 mL of high-salt buffer and 10 mL of low-salt buffer, each containing 50 mM HEPES (pH 7.5), 0.5% Triton X-100, 1 mM EDTA, 1 mM EGTA, and 10 mM sodium fluoride, and 1 M NaCl or 150 mM NaCl, respectively. A final wash of 1 mL 0.1% SDS was applied to the columns before elution in 1 mL of a 0.5% SDS solution in high heat. Elutions from all columns were combined and cysteines were alkylated by sequential incubations with DTT (final concentration 5 mM) for 20 minutes at 60° C. and iodoacetamide (final concentration 20 mM) for 30 minutes at room temperature in the dark. The elution was spin-concentrated to 100 μL and detergents were removed by a chloroform/methanol extraction. […]

[3] = 5 μM AZD6244, SILAC, TiO2 enrichment of MIB elutions

Cn1cnc2c(F)c(Nc3ccc(Br)cc3Cl)c(C(=O)NOCCO)cc21 [AZD6244]
growth of SUM159-R cells [1]: growth arrested | peptides of MIB isolated kinases with decreased phosphorylation [2, 3]: 52 peptides | peptides of MIB isolated kinases with increased phosphorylation [2, 3]: 59 peptides | phosphopeptides of MIB isolated kinases with unchanged phosphorylation status [2, 3]: 365 phosphopeptides | number of kinases with time-dependent MIB binding changes ([2]; 4, 12 and 24 h exposure to AZD6244): more than 140 kinases | MEK1 binding to MIBs ([2]; 12-24 h, 5 μM AZD6244): remains largely inhibited | MEK1 and MEK2, measured by loss of MIB binding ([2]; 4 h, 5 μM AZD6244): inhibited | MEK2 binding to MIBs, AZD6244/DMSO ratio ([2]; 24 h, 5 μM AZD6244): 1 | of the 40 highest expressed kinase transcripts of a patient claudin-low tumor, kinases dynamically regulated in binding to MIBs ([2]; SUM159 and/or MDA-MB-231 cells in response to AZD6244): 14 (24%)

— US20140243239A1, “MULTIPLEXED KINASE INHIBITOR BEADS AND USES THEREOF” (University of North Carolina at Chapel Hill, priority 2011, published 2014)
